Measured values reported in patent publication US6486201B1, “Agarofuan derivatives, their preparation, pharmaceutical composition containing them and their use as medicine” (Institute of Materia Medica, Chinese Academy of Medical …, priority 1998, dated 2002).

Key:
Wistar rats [1] = experiment: Social interaction test on rats; type: in vivo, rat; details: mean ± SD; for total time of interaction, 0-9 (minutes): high illuminance unfamiliar conditions (HU); for interaction time (sec. in 9 min): 2 mg/kg ip, HU
Method: The rats (Wistar, 160±20 g) for experiment were individually housed in chambers (55×55×40 cm), and handling adaptability and injection training were carried out twice a day 2 weeks before experiment. One day before experiment, the rats were weighed, labeled and grouped at random in pairs but still separated-until experiment. In experiment, 8 pairs of rats were given AF-5 in 2% lecithin (2% lecithin as control), and the total time of interaction was recorded including smelling, licking, leaning against, grabbing, chasing, biting, following, kicking, hitting etc. The experiment conditions were high illuminance with unfamiliar conditions (HU), low illuminance with unfamiliar conditions, high illuminance with familiar conditions and low illuminance with familiar conditions T-test was used to determine the significance between the test group and control group (Table 3, 4).

mice = experiment: Single dose toxicity in mice; type: in vivo
From the text: One week alive rate was 100%. The possible durable dosage was 2.4 g/kg by P.O. and two week alive rate was 100% at this dosage.

Wistar rats [2] = experiment: Elevated plus maze test on rats; type: in vivo, rat; details: for total time of staying on the opened arm (sec. in 5 min.): in 2% lecithin, n 12
From the text: The elevated plus-maze test has been used by Pellow, S. And File, SE. for anti-anxiety model in rats. It is one of the most widely used models for anxiolytics. The elevated plus maze has two cross arms, one is an opened arm (50*10 cm, length, width), another is a closed arm (50×10×40 cm, length, width, height) and the maze is 50 cm above the floor during experiment. The rat for experiment is put on the opening at the cross point (10×10) of the two arms, and may freely choose to enter either opened or closed arm.
Wistar rats of 160±20 g body weight were used, and divided randomly into 8 groups, 12 in each group. Handling adaptability training was carried out one week before the experiment. In the experiment, AF-5 in 2% lecithin of the doses listed in Table 1 was given to rats which were fasted for 12 hours before experiment. After administration, the rat was put on the center opening of the elevated plus headed to opened arm, and times of entering the opened arm, total time of staying on the opened arm, and times of shuttling inside the closed arm were recorded.

Wistar rats [3] = experiment: Elevated plus maze test on rats; type: in vivo, rat; details: 32 mg/kg ip, in 2% lecithin, mean ± SD, n 4
Kunming mice = experiment: Forced swimming test on mice (anti-depression activity); type: in vivo, mouse; details: for time of immobile phase (sec/4 min): mean ± SD
Method: The experiment used Kunming mice of China, male, 18-21 g of body weight. […]
The water in experiment vessel was 12 cm in depth, 12.5 cm in diameter and kept at 26° C. Each mouse was put in the water and forced to swim for 6 min in which total immobile time in the last 4 min was recorded, and the significance between experiment group and control group was tested by T value (Table 5).

[4] = 2 mg/kg ip, time 5 minutes, mean ± SE
[5] = 2 mg/kg ip, time 15 minutes, mean ± SE
[6] = 2 mg/kg ip, time 30 minutes, mean ± SE
[7] = 2 mg/kg ip, time 60 minutes, mean ± SE
[8] = 2 mg/kg ip, time 90 minutes, mean ± SE

`CCCC[C@H]1[C@@H](O)CC[C@@]2(C)CC[C@@H]3C[C@]12OC3(C)C` [Example 22, (1S,2S,3S,6R,9R)6,10,10-Trimethyl-2-butyl-3-hydroxy-11-oxatricyclo[7.2.1.0^1,6]dodecane] showed a melting point of 47 to 48 °C.
With `CC1(C)O[C@]23C[C@H]1CC[C@]2(C)CCC=C3CCO` [Example 11, (1R,6S,9R)6,10,10-Trimethyl-2-(2-hydroxyethyl)-11-oxatricyclo[7.2.1.0^1,6]dodec-2-ene] the melting point was 34 to 36 °C.
Compound `CC1(C)O[C@]23C[C@H]1CC[C@]2(C)CCC=C3Cc1ccccc1` [Example 7, (1R,6S,9R)6,10,10-Trimethyl-2-benzyl-11-oxatricyclo[7.2.1.0^1,6]dodec-2-ene] has a melting point of 49 to 50 °C.
`CCCC[C@H]1C(=O)CC[C@@]2(C)CC[C@@H]3C[C@]12OC3(C)C` [Example 23, (1S,2R,6R,9R)6,10,10-Trimethyl-2-butyl-11-oxatricyclo[7.2.1.0^1,6]dodecan-3-one] showed a melting point of 64 to 66 °C.
Work on `CC1(C)O[C@]23C[C@H]1CC[C@]2(C)CC[C@](C)(O)C3` [Example 24, (1S,3S,6R,9R)3,6,10,10-Tetramethyl-3-hydoxy-11-oxatricyclo[7.2.1.0^1,6]dodecane] yielded a melting point of 68 to 70 °C.
`CCCC[C@]1(O)CCC[C@@]2(C)CC[C@@H]3C[C@@]21OC3(C)C` [Example 16, (1R,2S,6S,9R)6,10,10-Trimethyl-2-butyl-2-hydroxy-11-oxatricyclo[7.2.1.0^1,6]dodecane] gave a melting point of 70 to 72 °C.
`CCCC[C@@]1(O)CCC[C@@]2(C)CC[C@@H]3C[C@@]21OC3(C)C` [Example 21, (1R,2R,6S,9R)6,10,10-Trimethyl-2-butyl-2-hydroxy-11-oxatricyclo[7.2.1.0^1,6]dodecane] gave a melting point of 90 to 92 °C.
In the case of `CC1=C[C@@]23C[C@@H](CC[C@]2(C)CC1)C(C)(C)O3` [Example 32, (1S,6R,9R)3,6,10,10-Tetramethyl-11-oxatricyclo[7.2.1.0^1,6]dodec-2-ene], the melting point is reported as 38 to 39 °C.
Compound `CC1(C)O[C@]23C[C@H]1CC[C@]2(C)CCC=C3Cc1ccc(F)cc1` [Example 8, (1R,6S,9R)6,10,10-Trimethyl-2-(4-flurobenzyl)-11-oxatricyclo[7.2.1.0^1,6]dodec-2-ene] has a melting point of 131 to 133 °C.
In the case of `CC1(C)O[C@]23C[C@H]1CC[C@]2(C)CCC=C3Cc1ccc(Cl)cc1` [Example 10, (1R,6S,9R)6,10,10-Trimethyl-2-(4-chlorobenzyl)-11-oxatricyclo[7.2.1.0^1,6]dodec-2-ene], the melting point is reported as 87 to 88 °C.
`CC(=O)CCC1=CCC[C@@]2(C)CC[C@@H]3C[C@]12OC3(C)C` [Example 29, (1R,6S,9R)6,10,10-Trimethyl-2-(3-oxobutyl)-11-oxatricyclo[7.2.1.0^1,6]dodec-2-ene] gave a melting point of 59 to 62 °C.
With `CCCCC1=CCC[C@@]2(C)CC[C@@H]3C[C@]12OC3(C)C` [AF-5, (1R,6S,9R)6,10,10-Trimethyl-2-butyl-11-oxatricyclo[7.2.1.0^1,6]dodec-2-ene] the “total time of interaction, 0-9 (minutes)” value (Wistar rats [1]; 0.125 mg/kg) was 1.93 min, the “total time of interaction, 0-9 (minutes)” value (Wistar rats [1]; 0.25 mg/kg) was 2.28 min and the “total time of interaction, 0-9 (minutes)” value (Wistar rats [1]; 0.5 mg/kg) was 3.65 min. For the same compound, the “total time of interaction, 0-9 (minutes)” value (Wistar rats [1]; 1.0 mg/kg) was 4.02 min, the “interaction time (sec. in 9 min)” value (Wistar rats [1]; time 5 minutes) was 98 sec. in 9 min and the “interaction time (sec. in 9 min)” value (Wistar rats [1]; time 15 minutes) was 143 sec. in 9 min. For the same compound, the “interaction time (sec. in 9 min)” value (Wistar rats [1]; time 30 minutes) was 103 sec. in 9 min, the “interaction time (sec. in 9 min)” value (Wistar rats [1]; time 60 minutes) was 166 sec. in 9 min and the “interaction time (sec. in 9 min)” value (Wistar rats [1]; time 90 minutes) was 112 sec. in 9 min. The “total time of interaction, 0-9 (minutes)” value (Wistar rats [1]; 2.0 mg/kg) was 3.25 min, the “total time of interaction, 0-9 (minutes)” value (Wistar rats [1]; 4.0 mg/kg) was 3.23 min and the “observed reactions after single dose” value (mice; intravenous injection 500 mg, mice) was “effect of calming, lying down, decreasing alarm reaction and without other abnormal reactions”. For the same compound, the “toxicity in single dose toxicity test (in words)” value (mice; mice) was “low toxicity and high safety coefficient”, the possible durable dosage (mice; mouse, in vivo, po, 2 week) was 2.4 g/kg and the Times of shuttling (Wistar rats [2]; 0.5 mg/kg ip, 5 min, closed arm, mean ± SD) was 2.5. For the same compound, the “total time of staying on the opened arm (sec. in 5 min.)” value (“total time of staying on the opened arm” for short) (Wistar rats [2]; 0.5 mg/kg ip, 5 min, mean ± SD) was 23 sec. in 5 min, the Times of shuttling (Wistar rats [2]; 1 mg/kg ip, 5 min, closed arm, mean ± SD) was 2.8 and the “total time of staying on the opened arm” value (Wistar rats [2]; 1 mg/kg ip, 5 min, mean ± SD) was 25 + sec. in 5 min. For the same compound, the Times of shuttling (Wistar rats [2]; 2 mg/kg ip, 5 min, closed arm, mean ± SD) was 2.8, the “total time of staying on the opened arm” value (Wistar rats [2]; 2 mg/kg ip, 5 min, mean ± SD) was 36 sec. in 5 min and the “Time in opened arm” value (Wistar rats [2]; [4]) was 4.4. For the same compound, the Times of shuttling (Wistar rats [2]; [4]) was 3.0, the “Time in opened arm” value (Wistar rats [2]; [5]) was 6.1 and the Times of shuttling (Wistar rats [2]; [5]) was 4.1. The “Time in opened arm” value (Wistar rats [2]; [6]) was 7.9, the Times of shuttling (Wistar rats [2]; [6]) was 6.6 and the “Time in opened arm” value (Wistar rats [2]; [7]) was 20.8. For the same compound, the Times of shuttling (Wistar rats [2]; [7]) was 5.6, the “Time in opened arm” value (Wistar rats [2]; [8]) was 1.27 and the Times of shuttling (Wistar rats [2]; [8]) was 3.7. The Times of shuttling (Wistar rats [2]; 4 mg/kg ip, 5 min, closed arm, mean ± SD) was 2.3, the “total time of staying on the opened arm” value (Wistar rats [2]; 4 mg/kg ip, 5 min, mean ± SD) was 30 sec. in 5 min and the Times of shuttling (Wistar rats [2]; 8 mg/kg ip, 5 min, closed arm, mean ± SD) was 1.3. For the same compound, the “total time of staying on the opened arm” value (Wistar rats [2]; 8 mg/kg ip, 5 min, mean ± SD) was 14 sec. in 5 min, the Times of shuttling (Wistar rats [2]; 16 mg/kg ip, 5 min, closed arm, mean ± SD) was 4.2 and the “total time of staying on the opened arm” value (Wistar rats [2]; 16 mg/kg ip, 5 min, mean ± SD) was 9.8 sec. in 5 min. The Times of shuttling (Wistar rats [2]; 32 mg/kg ip, 5 min, closed arm, mean ± SD) was 3.0, the “anti-anxiety activity in elevated plus maze test (in words)” value (Wistar rats [2]; rats, dose-effect) was “antianxiety activity with a wide dosage range” and the “total time of staying on the opened arm” value (Wistar rats [3]) was 9.6 sec. in 5 min. The “time of immobile phase (sec/4 min)” value (Kunming mice; P.O. three times a day (24, 5, 0.5 hours before experiment), 0.5 mg/kg) was 90 ± 25 sec/4 min, the “time of immobile phase (sec/4 min)” value (Kunming mice; P.O. three times a day (24, 5, 0.5 hours before experiment), 1.5 mg/kg) was 60 ± 30 sec/4 min and the “time of immobile phase (sec/4 min)” value (Kunming mice; P.O. three times a day (24, 5, 0.5 hours before experiment), 5.0 mg/kg) was 83 ± 35 sec/4 min. For the same compound, the “time of immobile phase (sec/4 min)” value (Kunming mice; P.O. three times a day (24, 5, 0.5 hours before experiment), 15.0 mg/kg) was 74 ± 41 sec/4 min, the “time of immobile phase (sec/4 min)” value (Kunming mice; P.O., s.i.d. × 21 days, 5.0 mg/kg) was 84 ± 41 sec/4 min and the “time of immobile phase (sec/4 min)” value (Kunming mice; P.O., s.i.d. × 21 days, 7.5 mg/kg) was 69 ± 45 sec/4 min. For the same compound, the “time of immobile phase (sec/4 min)” value (Kunming mice; P.O., s.i.d. × 21 days, 15.0 mg/kg) was 92 ± 66 sec/4 min, the “time of mobile phase vs. control (in words)” value (Kunming mice; administration in 21 successive days) was “prolonged the mobile time significantly” and the “anti-depression activity in forced swimming test (in words)” value (Kunming mice; mice) was “has anti-depression activity”. For the same compound, the “time of mobile phase vs. control (in words)” value (Kunming mice; single dosing 1.5, 5, and 15 mg/kg) was “did not prolong the time of mobile phase”, the “time of immobile phase (sec/4 min)” value (Kunming mice; single dosing, P.O., 0.5 hr, 1.5 mg/kg) was 93 ± 39 sec/4 min and the “time of immobile phase (sec/4 min)” value (Kunming mice; single dosing, P.O., 0.5 hr, 5.0 mg/kg) was 101 ± 52 sec/4 min. The “time of immobile phase (sec/4 min)” value (Kunming mice; single dosing, P.O., 0.5 hr, 15.0 mg/kg) was 97 ± 43 sec/4 min, the “time of mobile phase vs. control (in words)” value (Kunming mice; three times a day, 1.5 mg/kg group) was “showed significance” and the “time of mobile phase vs. control (in words)” value (Kunming mice; three times a day, 0.5 and 5 mg/kg groups) was “did not show significance though prolonged the mobile time”.
Work on `CC(C)CCC1=CCC[C@@]2(C)CC[C@@H]3C[C@]12OC3(C)C` [Example 5, (1R,6S,9R)6,10,10-Trimethyl-2-isopentyl-11-oxatricyclo[7.2.1.0^1,6]dodec-2-ene] yielded a melting point of 38 to 39 °C.
